Test results reported in the supplement of paper PMC10307832.

Assays:
Assay in all cases: relative viability (nuclei count vs DMSO), 5 days (fraction); higher = more cells survive
[1] = compound: C1CCC(CC1)N(CCNCCC2=C3C(=C(C=C2)O)NC(=O)CO3)C(=O)CCNCCC4=CC(=C(C=C4)Cl)Cl [AZ505] + CCNC(=O)c1noc(-c2cc(C(C)C)c(O)cc2O)c1-c1ccc(CN2CCOCC2)cc1 [Luminespib] (partner 0.01 µM)
How it was run: (§1)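 Medians of duplicate plates are given as relative viability. That measure is the nuclei count in treated wells divided by the count in vehicle wells. Counts were taken on 4× images of lung cancer cell lines in 1536-well plates, 5 days after pin-tool dosing the day after seeding with one drug alone or a fixed anchor-drug dose plus five library-drug doses (not always all listed) in √10 steps.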

[2] = compound: Cn1c(=O)n(-c2ccc(C(C)(C)C#N)cc2)c2c3cc(-c4cnc5ccccc5c4)ccc3ncc21 [Dactolisib] + COc1cccc2cc(-c3nc([C@H]4CC[C@H](C(=O)O)CC4)n4ncnc(N)c34)[nH]c12 [OSI-027] (partner 0.5 µM)
How it was run: as §1

[3] = compound: C1CCC(CC1)N(CCNCCC2=C3C(=C(C=C2)O)NC(=O)CO3)C(=O)CCNCCC4=CC(=C(C=C4)Cl)Cl [AZ505] + CS(=O)(=O)N1CCN(Cc2cc3nc(-c4cccc5[nH]ncc45)nc(N4CCOCC4)c3s2)CC1 [Pictilisib] (partner 1 µM)
How it was run: as §1

[4] = compound: Cn1c(=O)n(-c2ccc(C(C)(C)C#N)cc2)c2c3cc(-c4cnc5ccccc5c4)ccc3ncc21 [Dactolisib] + NC(=O)Nc1cc(-c2cccc(F)c2)sc1C(=O)N[C@H]1CCCNC1 [AZD7762] (partner 0.2 µM)
How it was run: as §1

Cell Line	relative viability ([1]; first compound 0.08 µM)	relative viability ([1]; first compound 0.253 µM)	relative viability ([1]; first compound 0.8 µM)	relative viability ([1]; first compound 2.53 µM)	relative viability ([1]; first compound 8 µM)	relative viability ([2]; first compound 0.002 µM)	relative viability ([2]; first compound 0.006325 µM)	relative viability ([2]; first compound 0.02 µM)	relative viability ([2]; first compound 0.06325 µM)	relative viability ([2]; first compound 0.2 µM)	relative viability ([3]; first compound 0.08 µM)	relative viability ([3]; first compound 0.253 µM)	relative viability ([3]; first compound 0.8 µM)	relative viability ([3]; first compound 2.53 µM)	relative viability ([3]; first compound 8 µM)	relative viability ([4]; first compound 0.002 µM)	relative viability ([4]; first compound 0.006325 µM)	relative viability ([4]; first compound 0.02 µM)	relative viability ([4]; first compound 0.06325 µM)	relative viability ([4]; first compound 0.2 µM)
NCI-H1651	0.78	0.881	0.736	0.841	0.944	0.783	0.665	0.639	0.421	0.323	0.656	0.56	0.603	0.633	0.588	0.443	0.483	0.318	0.28	0.179
NCI-H1666	0.974	0.952	0.931	0.987	0.997	1.04	0.895	0.864	0.755	0.687	0.442	0.404	0.421	0.408	0.456	0.81	0.98	0.807	0.727	0.656
NCI-H1734	0.234	0.197	0.221	0.232	0.161	0.561	0.594	0.562	0.313	0.247	0.384	0.407	0.446	0.44	0.431	0.542	0.428	0.447	0.146	0.131
NCI-H1755	0.505	0.589	0.448	0.594	0.444	0.821	0.772	0.8	0.683	0.542	0.347	0.331	0.333	0.42	0.431	0.355	0.453	0.422	0.411	0.325
NCI-H1792	0.359	–	0.452	0.478	0.404	0.742	0.72	0.654	0.391	0.266	0.301	0.262	0.288	0.25	0.323	0.748	0.448	0.569	0.0821	0.0508
NCI-H1793	0.199	0.173	0.179	–	0.167	0.317	0.26	0.257	0.212	0.157	0.284	0.417	0.426	0.31	0.386	0.44	0.361	0.38	0.246	0.11
NCI-H1915	0.769	0.928	0.75	0.783	0.986	0.723	0.704	0.716	0.535	0.418	0.907	0.891	0.835	0.703	0.913	0.654	0.67	0.696	0.664	0.597
NCI-H1944	0.827	0.715	0.77	0.707	0.738	0.467	0.418	0.418	0.281	0.195	0.343	0.372	0.346	0.344	0.334	0.374	0.47	0.401	0.24	0.195
